The record followed here is US4937236A, “Anxiolytic N-substituted benzamides” (priority 1987, dated 1990).

Where a name gives a salt, the structure may show the parent alone.

In assay [1] the test system is Apomorphine-induced emesis. The experiment in a line: Apomorphine-induced emesis in the dog. To be noted: for APOMORPHINE-INDUCED VOMITING IN THE DOG % Protected animals: 1 mg/kg i.v.
A further assay concerns gastric emptying. In words: Stomach emptying (gastric emptying of glass beads) in the rat. It counts as in vivo. Further details: unit not given here. An excerpt: (5) Stomach emptying in the rat, administering compounds by oral route. (Jacoby, H. I., and Brodie, D. A. Gastroenterol. 52, 676-684, 1967).
All of them show a good prokinetic activity in the gastric emptying of glass beads in the rat.

The subject of the next assay is CuSO4-induced emesis. The experiment in a line: CuSO4-induced emesis in the dog. In kind it is in vivo. To be noted: for C4 SO4 - INDUCED VOMITING No EMETIC EPISODES IN THE DOG (% Inh.): 1 mg/kg i.v. An excerpt: (Kayashima, N., Tanaka, M., Iwasaki, M. & Hayama, T. Japan J. Pharmacol. (1978)28: 775-781).
Assay [2] relates to Cis-platinum induced emesis. In words: Cis-platinum induced emesis in the dog. In kind it is in vivo. From the text: (Gylys, J. A., Dora, K. M. & Buyniski J. P. Res. Comm. Chem. Pathol. Pharmacol. (1979)23: 61-68).
Assay [3] addresses T1, 5HT3 receptors located in vagal afferent fibres (Rattus norvegicus, UniProt P35563).
T1 construct: 5HT3 receptors located in vagal afferent fibres; from tissue; host or cells: vagal afferent fibres of the anaesthetized rat (in vivo)
T1 sequence (P35563 24-483): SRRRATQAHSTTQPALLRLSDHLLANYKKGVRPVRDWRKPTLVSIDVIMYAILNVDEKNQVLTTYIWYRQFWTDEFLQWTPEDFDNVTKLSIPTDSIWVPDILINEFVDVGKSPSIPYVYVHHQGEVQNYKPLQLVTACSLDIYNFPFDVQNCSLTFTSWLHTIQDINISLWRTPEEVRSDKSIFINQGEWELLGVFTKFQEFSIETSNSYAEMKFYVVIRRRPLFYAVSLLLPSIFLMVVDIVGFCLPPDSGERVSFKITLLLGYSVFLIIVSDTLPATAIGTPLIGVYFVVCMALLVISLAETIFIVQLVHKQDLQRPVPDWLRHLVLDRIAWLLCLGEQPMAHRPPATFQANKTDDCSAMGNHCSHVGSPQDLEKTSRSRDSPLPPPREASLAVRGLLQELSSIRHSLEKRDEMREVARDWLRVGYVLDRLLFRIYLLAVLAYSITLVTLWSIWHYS
In words: Inhibition of the Bezold-Jarisch reflex in the anaesthetized rat. The conditions noted are these: iv, read-out: BEZOLD-JARISCH REFLEX IN THE RAT (ID50; μg/kg i.v.). In kind it is in vivo. An excerpt:
(1) Stimulation by 5-HT of 5HT3 receptors located in vagal afferent fibres produces a fall in heart rate and blood pressure in the anaesthetized rat (Bezold-Jarisch reflex).

Consider `Nc1cc(OCC2CC2)c(C(=O)NC2CN3CCC2CC3)cc1Cl` (stereo not shown) [Compound 1, N-(1-azabicyclo[2.2.2]oct-3-yl)-2-cyclopropylmethoxy-4-amino-5-chlorobenzamide], for which, in assay [1], the “APOMORPHINE-INDUCED VOMITING IN THE DOG % Protected animals” value is reported as 0%. Further, the entries for the “GASTRIC EMPTYING IN THE RAT [drawing 8]” value with gastric emptying (0.01 mg/kg p.o.) and in the assay on gastric emptying (1.0 mg/kg p.o.) were 55 and 85, respectively. In addition, the “C4 SO4 - INDUCED VOMITING No EMETIC EPISODES IN THE DOG (% Inh.)” value with CuSO4-induced emesis turned out to be 40%. The entries for the “CISPLATIN-INDUCED VOMITING IN THE DOG (% inhibition)” value in assay [2] (0.03 mg/kg i.v.) and in assay [2] (0.1 mg/kg p.o.) were 88% and 85%, respectively. Moreover, in assay [3], the ED50 stood at 0.56 µg/kg.

On to `COCCOc1cc(N)c(Cl)cc1C(=O)NC1CN2CCC1CC2` (stereo not shown) [Compound 11, N-(1-azabicyclo[2.2.2]oct-3-yl)-2-methoxyethoxy-4-amino-5-chlorobenzamide], for which the “APOMORPHINE-INDUCED VOMITING IN THE DOG % Protected animals” value in assay [1] was found to be 0%. The “GASTRIC EMPTYING IN THE RAT [drawing 8]” value in the assay with gastric emptying (0.01 mg/kg p.o.) is 60; in the assay on gastric emptying (1.0 mg/kg p.o.), 68. In addition, in the assay on CuSO4-induced emesis, the “C4 SO4 - INDUCED VOMITING No EMETIC EPISODES IN THE DOG (% Inh.)” value stood at 24%. The “CISPLATIN-INDUCED VOMITING IN THE DOG (% inhibition)” value was 81% in assay [2] (0.03 mg/kg i.v.) and 0% in assay [2] (0.1 mg/kg p.o.). The ED50 in assay [3] stood at 0.42 µg/kg.

As for `CN1[C@@H]2CC[C@H]1C[C@H](NC(=O)c1cc(Cl)c(N)cc1OCC1CC1)C2` [Compound 16, N(8-methyl-8-azabicyclo[3.2.1]oct3β-yl)2-cyclopropylmethoxy-4-amino-5-chlorobenzamide], the “APOMORPHINE-INDUCED VOMITING IN THE DOG % Protected animals” value in assay [1] is recorded as 0%. Further, the “GASTRIC EMPTYING IN THE RAT [drawing 8]” value was determined as 32 in the assay on gastric emptying (0.01 mg/kg p.o.) and 71 in the assay with gastric emptying (1.0 mg/kg p.o.). In addition, in the assay on CuSO4-induced emesis, the “C4 SO4 - INDUCED VOMITING No EMETIC EPISODES IN THE DOG (% Inh.)” value came to 45%. The “CISPLATIN-INDUCED VOMITING IN THE DOG (% inhibition)” value was 53% in assay [2] (0.03 mg/kg i.v.) and 61% in assay [2] (0.1 mg/kg p.o.). Also, the ED50 in assay [3] came to 2.6 µg/kg.

On to `COCCOc1cc(N)c(Cl)cc1C(=O)N[C@@H]1C[C@H]2CC[C@@H](C1)N2C` [Compound 23, N-(8-methyl-8-azabicyclo[3.2.1]oct-3β-yl)-2-(2-methoxyethoxy)-4-amino-5-chlorobenzamide acid fumarate], for which the “APOMORPHINE-INDUCED VOMITING IN THE DOG % Protected animals” value in assay [1] was 0%. The “GASTRIC EMPTYING IN THE RAT [drawing 8]” value was 13 in the assay on gastric emptying (0.01 mg/kg p.o.) and 61 with gastric emptying (1.0 mg/kg p.o.). For the same compound, in the assay with CuSO4-induced emesis, the “C4 SO4 - INDUCED VOMITING No EMETIC EPISODES IN THE DOG (% Inh.)” value is listed as 30%. Further, the “CISPLATIN-INDUCED VOMITING IN THE DOG (% inhibition)” value in assay [2] (0.03 mg/kg i.v.) is recorded as 31%; in assay [2] (0.1 mg/kg p.o.), 53%. In addition, the ED50 in assay [3] stood at 0.63 µg/kg.

As for `CCN(CC)CCNC(=O)c1cc(Cl)c(N)cc1OC` [Metoclopramide, N-[2-(diethylamino)ethyl]-2-methoxy-4-amino-5-chlorobenzamide, reference compound], in assay [1], the “antiemetic activity in apomorphine-induced vomiting in the dog (in words)” value was “very active” and the “APOMORPHINE-INDUCED VOMITING IN THE DOG % Protected animals” value is given as 100%. In addition, the “GASTRIC EMPTYING IN THE RAT [drawing 8]” value in the assay on gastric emptying (0.01 mg/kg p.o.) was determined as 0. For the same compound, the “GASTRIC EMPTYING IN THE RAT [drawing 8]” value in the assay with gastric emptying (1.0 mg/kg p.o.) was found to be 42. Further, in the assay on CuSO4-induced emesis, the “activity in CuSO4-induced vomiting in the dog (in words)” value is reported as “decreases the number of emetic episodes” and the “C4 SO4 - INDUCED VOMITING No EMETIC EPISODES IN THE DOG (% Inh.)” value was found to be 60%. In addition, the “CISPLATIN-INDUCED VOMITING IN THE DOG (% inhibition)” value in assay [2] (1 mg/kg i.v.) was found to be 69%. For the same compound, in assay [2] (3 mg/kg p.o.), the “CISPLATIN-INDUCED VOMITING IN THE DOG (% inhibition)” value is recorded as 85%. Also, the ED50 in assay [3] is 330 µg/kg.

Regarding `COc1cc(N)c(Cl)cc1C(=O)NC1CN2CCC1CC2` (stereo not shown) [Zacopride, N-(1-azabicyclo[2.2.2]oct-3-yl)-2-methoxy-4-amino-5-chlorobenzamide, reference compound], in assay [1], the “antiemetic activity in apomorphine-induced vomiting in the dog (in words)” value is on record as “lack antiemetic activity” and the “APOMORPHINE-INDUCED VOMITING IN THE DOG % Protected animals” value is on record as 0%. In addition, the “GASTRIC EMPTYING IN THE RAT [drawing 8]” value in the assay on gastric emptying (0.01 mg/kg p.o.) came out at 51. Besides, the “GASTRIC EMPTYING IN THE RAT [drawing 8]” value in the assay with gastric emptying (1.0 mg/kg p.o.) is reported as 77. In addition, in the assay with CuSO4-induced emesis, the “activity in CuSO4-induced vomiting in the dog (in words)” value was “totally inactive” and the “C4 SO4 - INDUCED VOMITING No EMETIC EPISODES IN THE DOG (% Inh.)” value was 0%. For the same compound, the “CISPLATIN-INDUCED VOMITING IN THE DOG (% inhibition)” value in assay [2] (0.03 mg/kg i.v.) amounted to 92%. In assay [2] (0.1 mg/kg p.o.), the “CISPLATIN-INDUCED VOMITING IN THE DOG (% inhibition)” value is 88%. For the same compound, the ED50 in assay [3] worked out at 0.21 µg/kg.
